Assay results from patent US8017612B2, “Piperazine compound and use thereof as a HCV polymerase inhibitor” (priority 2006, dated 2011).
Where a name gives a salt, the structure may show the parent alone.

How the values were obtained:
[1] = molecular target: T1, HCV polymerase (NS5B) type 1b (Hepatitis C virus genotype 1b, UniProt P26663); assay: Assay of enzyme (HCV polymerase) inhibitory activity, type 1b enzyme; format: biochemical, HCV BK strain (type 1b); conditions: HCV polymerase inhibitory activity (IC50), 1b, type 1b enzyme 0.5 μg/ml, 25° C., 60 min
T1 construct: a region encoding NS5B (J Virol 1991 March, 65(3), 1105-13, 544 amino acids after deletion of 47 amino acids on the C-terminal); 6xHis (C); made in house; host or cells: Escherichia coli
Method in brief: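 NS5B from HCV BK strain (type 1b), C-terminal 47 aa deleted, C-terminal His6-tagged, E. coli-expressed, 0.5 μg/ml, with ~450 nt substrate RNA carrying the 3′ UTR (polyU, 3′X) at 5 μg/ml. Incubation 60 min at 25 °C with 50 μM ATP/GTP/CTP, 2 μM UTP plus [3H]UTP, pH 7.5 Tris.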

[2] = molecular target: T2, HCV polymerase (NS5B) type 1a (Hepatitis C virus genotype 1a, UniProt P26664); assay: Assay of enzyme (HCV polymerase) inhibitory activity, type 1a enzyme; format: biochemical, HCV type 1a (cloned from the blood of patients); conditions: HCV polymerase inhibitory activity (IC50), 1a, type 1a enzyme 1.5 μg/ml, 25° C., 60 min
T2 construct: made in house; host or cells: Escherichia coli (by the 'similar method' of the 1b enzyme)
Method in brief: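 Patient-derived type 1a NS5B (C-terminal 47-aa deletion, His-tagged, E. coli-expressed) at 1.5 μg/ml was reacted with 5 μg/ml 3′UTR-containing substrate RNA, 50 μM ATP/GTP/CTP, 2 μM UTP plus [3H]UTP, pH 7.5, 25° C for 60 min. TCA-precipitated RNA radioactivity was counted; IC50 from ± compound.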

`CC(C)c1ccc(CNC(=O)[C@H]2CN(C(=O)Nc3cccnc3)CCN2S(=O)(=O)c2ccc(C(F)(F)F)cc2)cc1` [Example 211, (R)-4-(4-trifluoromethyl-benzenesulfonyl)-piperazine-1,3-dicarboxylic acid 3-(4-isopropyl-benzylamide) 1-pyridin-3-ylamide] gave an IC50 [1] of 0.1 to 1 µM and an IC50 [2] of 0.1 to 1 µM.

For `COC(=O)CCCCC(=O)N1CCN(S(=O)(=O)c2ccc(C(F)(F)F)cc2)[C@@H](C(=O)NCc2ccc(C(C)C)cc2)C1` [Example 212, 6-[(R)-3-(4-isopropyl-benzylcarbamoyl)-4-(4-trifluoromethyl-benzenesulfonyl)-piperazin-1-yl]-6-oxo-hexanoic acid methyl ester], the IC50 [1] was < 0.1 µM and the IC50 [2] was 0.1 to 1 µM.

In the case of `CC(C)c1ccc(CNC(=O)[C@H]2CN(C(=O)CCCCC(=O)O)CCN2S(=O)(=O)c2ccc(C(F)(F)F)cc2)cc1` [Example 213, 6-[(R)-3-(4-isopropyl-benzylcarbamoyl)-4-(4-trifluoromethyl-benzenesulfonyl)-piperazin-1-yl]-6-oxo-hexanoic acid], the IC50 [1] is reported as 0.1 to 1 µM and the IC50 [2] is reported as 0.1 to 1 µM.

With `COc1ccc(S(=O)(=O)N2CCN(C(C)=O)C[C@@H]2C(=O)NCc2ccc(C(C)C)cc2)cc1` [Example 214, (R)-4-acetyl-1-(4-methoxy-benzenesulfonyl)-piperazine-2-carboxylic acid 4-isopropyl-benzylamide] the IC50 [1] was 0.1 to 1 µM and the IC50 [2] was 0.1 to 1 µM.

In the case of `COc1ccc(S(=O)(=O)N2CCN(C(C)=O)C[C@@H]2C(=O)NCc2ccc(C(C)C)cc2)cc1C(C)C` [Example 215, (R)-4-acetyl-1-(3-isopropyl-4-methoxy-benzenesulfonyl)-piperazine-2-carboxylic acid 4-isopropyl-benzylamide], the IC50 [1] is reported as < 0.1 µM and the IC50 [2] is reported as 0.1 to 1 µM.

In the case of `COc1ccc(S(=O)(=O)N2CCN(C(C)=O)C[C@@H]2C(=O)NCc2ccc(C(C)C)cc2)cc1Cl` [Example 216, (R)-4-acetyl-1-(3-chloro-4-methoxy-benzenesulfonyl)-piperazine-2-carboxylic acid 4-isopropyl-benzylamide], the IC50 [1] is reported as 0.1 to 1 µM and the IC50 [2] is reported as 0.1 to 1 µM.

With `COC(=O)Cc1cc(S(=O)(=O)N2CCN(C(C)=O)C[C@@H]2C(=O)NCc2ccc(C(C)C)cc2)ccc1OC` [Example 217, {5-[(R)-4-acetyl-2-(4-isopropyl-benzylcarbamoyl)-piperazine-1-sulfonyl]-2-methoxy-phenyl}-acetic acid methyl ester] the IC50 [1] was > 1 µM and the IC50 [2] was > 1 µM.

`COC(=O)CCc1cc(S(=O)(=O)N2CCN(C(C)=O)C[C@@H]2C(=O)NCc2ccc(C(C)C)cc2)ccc1OC` [Example 218, 3-{5-[(R)-4-acetyl-2-(4-isopropyl-benzylcarbamoyl)-piperazine-1-sulfonyl]-2-methoxy-phenyl}-propionic acid methyl ester] showed an IC50 [1] of 0.1 to 1 µM and an IC50 [2] of 0.1 to 1 µM.

With `CC(C)c1ccc(CNC(=O)[C@H]2CN(C(=O)Cn3ccnc3)CCN2S(=O)(=O)c2ccc(C(F)(F)F)cc2)cc1` [Example 219, (R)-4-(2-imidazol-1-yl-acetyl)-1-(4-trifluoromethyl-benzenesulfonyl)-piperazine-2-carboxylic acid 4-isopropyl-benzylamide] the IC50 [1] was < 0.1 µM and the IC50 [2] was < 0.1 µM.

In the case of `CC(C)c1ccc(CNC(=O)[C@H]2CN(C(=O)Cn3ccnn3)CCN2S(=O)(=O)c2ccc(C(F)(F)F)cc2)cc1` [Example 220, (R)-4-(2-[1,2,3]triazol-1-yl-acetyl)-1-(4-trifluoromethyl-benzenesulfonyl)-piperazine-2-carboxylic acid 4-isopropyl-benzylamide], the IC50 [1] is reported as < 0.1 µM and the IC50 [2] is reported as < 0.1 µM.

`COc1ccc(S(=O)(=O)N2CCN(C(C)=O)C[C@@H]2C(=O)NCc2ccc(C(C)C)cc2)cc1CC(=O)O` [Example 221, {5-[(R)-4-acetyl-2-(4-isopropyl-benzylcarbamoyl)-piperazine-1-sulfonyl]-2-methoxy-phenyl}-acetic acid] was tested, and the IC50 [1] was > 1 µM and the IC50 [2] was > 1 µM.

Compound `COc1ccc(S(=O)(=O)N2CCN(C(C)=O)C[C@@H]2C(=O)NCc2ccc(C(C)C)cc2)cc1CCC(=O)O` [Example 222, 3-{5-[(R)-4-acetyl-2-(4-isopropyl-benzylcarbamoyl)-piperazine-1-sulfonyl]-2-methoxy-phenyl}-propionic acid] has an IC50 [1] of 0.1 to 1 µM and an IC50 [2] of 0.1 to 1 µM.

With `COC(=O)C(C)(C)c1ccc(CNC(=O)[C@H]2CN(C(C)=O)CCN2S(=O)(=O)c2ccc(C(C)C)cc2)cc1` [Example 223, 2-[4-({[(R)-4-acetyl-1-(4-isopropyl-benzenesulfonyl)-piperazine-2-carbonyl]-amino}-methyl)-phenyl]-2-methyl-propionic acid methyl ester] the IC50 [1] was 0.1 to 1 µM and the IC50 [2] was 0.1 to 1 µM.

`CC(=O)N1CCN(S(=O)(=O)c2ccc(C(C)C)cc2)[C@@H](C(=O)NCc2ccc(CCO)cc2)C1` [Example 224, (R)-4-acetyl-1-(4-isopropyl-benzenesulfonyl)-piperazine-2-carboxylic acid 4-(2-hydroxy-ethyl)-benzylamide] was tested, and the IC50 [1] was > 1 µM and the IC50 [2] was > 1 µM.

With `CC(C)c1ccc(CNC(=O)[C@H]2CN(C(=O)CN)CCN2S(=O)(=O)c2ccc(C(F)(F)F)cc2)cc1` [Example 225, (R)-4-(2-amino-acetyl)-1-(4-trifluoromethyl-benzenesulfonyl)-piperazine-2-carboxylic acid 4-isopropyl-benzylamide hydrochloride] the IC50 [1] was 0.1 to 1 µM and the IC50 [2] was 0.1 to 1 µM.

`CC(=O)N1CCN(S(=O)(=O)c2ccc(C(C)C)cc2)[C@@H](C(=O)NCc2ccc(CO)cc2)C1` [Example 226, (R)-4-acetyl-1-(4-isopropyl-benzenesulfonyl)-piperazine-2-carboxylic acid 4-hydroxymethyl-benzylamide] was tested, and the IC50 [1] was > 1 µM and the IC50 [2] was > 1 µM.

For `CSc1ccc(CNC(=O)[C@H]2CN(C(C)=O)CCN2S(=O)(=O)c2ccc(C(C)C)cc2)cc1` [Example 227, (R)-4-acetyl-1-(4-isopropyl-benzenesulfonyl)-piperazine-2-carboxylic acid 4-methylsulfanyl-benzylamide], the IC50 [1] was 0.1 to 1 µM and the IC50 [2] was 0.1 to 1 µM.

Compound `CC(C)c1ccc(CNC(=O)[C@H]2CN(C(=O)Cn3cccn3)CCN2S(=O)(=O)c2ccc(C(F)(F)F)cc2)cc1` [Example 228, (R)-4-(2-pyrazol-1-yl-acetyl)-1-(4-trifluoromethyl-benzenesulfonyl)-piperazine-2-carboxylic acid 4-isopropyl-benzylamide] has an IC50 [1] of 0.1 to 1 µM and an IC50 [2] of 0.1 to 1 µM.

For `CC(C)c1ccc(CNC(=O)[C@H]2CN(C(=O)Cn3cncn3)CCN2S(=O)(=O)c2ccc(C(F)(F)F)cc2)cc1` [Example 229, (R)-4-(2-[1,2,4]triazol-1-yl-acetyl)-1-(4-trifluoromethyl-benzenesulfonyl)-piperazine-2-carboxylic acid 4-isopropyl-benzylamide], the IC50 [1] was < 0.1 µM and the IC50 [2] was < 0.1 µM.

`CC(C)c1ccc(CNC(=O)[C@H]2CN(C(=O)Cn3cnnc3)CCN2S(=O)(=O)c2ccc(C(F)(F)F)cc2)cc1` [Example 230, (R)-4-(2-[1,2,4]triazol-4-yl-acetyl)-1-(4-trifluoromethyl-benzenesulfonyl)-piperazine-2-carboxylic acid 4-isopropyl-benzylamide] was tested, and the IC50 [1] was < 0.1 µM and the IC50 [2] was < 0.1 µM.

With `CC(=O)N1CCN(S(=O)(=O)c2ccc(C(C)C)cc2)[C@@H](C(=O)NCc2ccc(C(C)(C)C(=O)O)cc2)C1` [Example 231, 2-[4-({[(R)-4-acetyl-1-(4-isopropyl-benzenesulfonyl)-piperazine-2-carbonyl]-amino}-methyl)-phenyl]-2-methyl-propionic acid] the IC50 [1] was > 1 µM and the IC50 [2] was > 1 µM.

For `CCc1ccc(CNC(=O)[C@H]2CN(C(C)=O)CCN2S(=O)(=O)c2ccc(C(C)C)cc2)cc1` [Example 232, (R)-4-acetyl-1-(4-isopropyl-benzenesulfonyl)-piperazine-2-carboxylic acid 4-ethyl-benzylamide], the IC50 [1] was 0.1 to 1 µM and the IC50 [2] was 0.1 to 1 µM.

With `CC(=O)N1CCN(S(=O)(=O)c2ccc(C(C)C)cc2)[C@@H](C(=O)NCc2ccc(C(C)(C)C(=O)N(C)C)cc2)C1` [Example 233, (R)-4-acetyl-1-(4-isopropyl-benzenesulfonyl)-piperazine-2-carboxylic acid 4-(1-dimethylcarbamoyl-1-methyl-ethyl)-benzylamide] the IC50 [1] was > 1 µM and the IC50 [2] was > 1 µM.

`CC(=O)N1CCN(S(=O)(=O)c2ccc(C(C)C)cc2)[C@@H](C(=O)NCc2ccc(C3(CO)CC3)cc2)C1` [Example 234, (R)-4-acetyl-1-(4-isopropyl-benzenesulfonyl)-piperazine-2-carboxylic acid 4-(1-hydroxymethyl-cyclopropyl)-benzylamide] was tested, and the IC50 [1] was > 1 µM and the IC50 [2] was > 1 µM.

For `COC(=O)c1cc(S(=O)(=O)N2CCN(C(C)=O)C[C@@H]2C(=O)NCc2ccc(C(C)C)cc2)ccc1OC` [Example 235, 5-[(R)-4-acetyl-2-(4-isopropyl-benzylcarbamoyl)-piperazine-1-sulfonyl]-2-methoxy-benzoic acid methyl ester], the IC50 [1] was > 1 µM and the IC50 [2] was > 1 µM.

`CCc1cc(S(=O)(=O)N2CCN(C(C)=O)C[C@@H]2C(=O)NCc2ccc(C(C)C)cc2)ccc1OC` [Example 236, (R)-4-acetyl-1-(3-ethyl-4-methoxy-benzenesulfonyl)-piperazine-2-carboxylic acid 4-isopropyl-benzylamide] showed an IC50 [1] of 0.1 to 1 µM and an IC50 [2] of 0.1 to 1 µM.
